Results taken from patent US20220380319A1 (Bial - R&D Investments, S.A., priority 2019, published 2022).
Converted amounts (≈) assume the structure as drawn.

Legend:
acid ceramidase = molecular target: T1, acid ceramidase (Homo sapiens, UniProt Q13510); test: Acid ceramidase inhibition, biochemical fluorescent assay with cell lysates overexpressing acid ceramidase, substrate Rbm14-12; conditions: substrate Rbm14-12 6.3 μM
T1 construct: Cell lysates overexpressing acid ceramidase were used as the enzyme source; expressed in transfected cells
T1 sequence (Q13510 22-395): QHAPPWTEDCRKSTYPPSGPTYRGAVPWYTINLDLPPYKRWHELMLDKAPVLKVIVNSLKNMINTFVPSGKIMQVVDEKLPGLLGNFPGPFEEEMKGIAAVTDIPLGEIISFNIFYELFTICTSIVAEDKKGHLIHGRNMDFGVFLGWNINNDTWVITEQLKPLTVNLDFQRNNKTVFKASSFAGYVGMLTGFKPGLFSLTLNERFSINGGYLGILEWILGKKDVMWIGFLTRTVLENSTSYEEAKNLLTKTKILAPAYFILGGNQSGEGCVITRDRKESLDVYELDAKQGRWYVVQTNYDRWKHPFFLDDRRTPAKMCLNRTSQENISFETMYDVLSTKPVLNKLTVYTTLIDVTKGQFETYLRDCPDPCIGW
Description: The ability of exemplary compounds to inhibit acid ceramidase was measured.
Cell lysates overexpressing acid ceramidase were used as the enzyme source for compound potency determination in a biochemical fluorescent assay. Briefly, compounds were preincubated with 10 μg protein of cell lysates in a dose-response manner for 1 hr at RT in the assay buffer containing 25 mM NaAC and 100 mM NaCl, pH 4.5. The reaction was initiated by the addition of substrate Rbm14-12 at a final concentration of 6.3 μM. The reaction was run at RT for 1 hr before it was stopped by the addition of the stopping buffer containing 20% methanol (v/v), 1 mg/ml NaIO4, 0.1 M glycine, pH 10.6. The samples were incubated with the stopping buffer at RT for 1 hr to allow the fluorescent product to be formed. Finally, the plate was read with SpectraMax i3 plate reader (Molecular Devices) at ex360 nm and em446 nm. Data were collected and used to determine the IC50 values of compounds by curve fitting to the four-parameter inhibition equation.

[1] = Compound solubility in water
[2] = pH 4.5, 1 hr preincubation at RT

IC50 (acid ceramidase; pH 4.5) | solubility [1] | IC50 (acid ceramidase; [2]) | SMILES
200 to 1000 nM | 11 µg/mL (≈ 31.9 µM) |  | CC(C)CCNC(=O)n1cnc2c(N3C[C@H](C)O[C@@H](C)C3)cccc21 (stereo in doubt) [Example 168, 4-((2S,6S)-2,6-Dimethylmorpholino)-N-iso-pentyl-1H-benzo[d]imidazole-1-carboxamide]
 | 18 µg/mL (≈ 47.3 µM) | 200 to 1000 nM | COc1nc2ccc(N3CCOCC3)cc2n1C(=O)NCCc1ccccc1 [28 & 29a]
 | 8 µg/mL (≈ 30.2 µM) | < 200 nM | O=C(NCCc1ccccc1)n1cnc2ccccc21 [Example 1, N-Phenethyl-1H-benzo[d]imidazole-1-carboxamide]
 |  | < 200 nM | Cc1nc2ccccc2n1C(=O)NCCc1ccccc1 [Example 2, 2-Methyl-N-phenethyl-1H-benzo[d]imidazole-1-carboxamide]
 | 10 µg/mL (≈ 33.9 µM) | < 200 nM | COc1nc2ccccc2n1C(=O)NCCc1ccccc1 [Example 3, 2-Methoxy-N-phenethyl-1H-benzo[d]imidazole-1-carboxamide]
 | 20.6 µg/mL (≈ 56.8 µM) | < 200 nM | CN1CCC(c2ccc3c(c2)ncn3C(=O)NCCc2ccccc2)CC1 [Example 4, 5-(1-Methylpiperidin-4-yl)-N-phenethyl-1H-bezo[d]imidazole-1-carboxamide]
 | 13.8 µg/mL (≈ 49.4 µM) | < 200 nM | O=C(NCCCc1ccccc1)n1cnc2ccccc21 [Example 5, N-(3-Phenylpropyl)-1H-benzo[d]imidazole-1-carboxamide]
 | 1 µg/mL (≈ 3.41 µM) | < 200 nM | O=C(NCCCCc1ccccc1)n1cnc2ccccc21 [Example 6, N-(4-Phenylbutyl)-1H-benzo[d]imidazole-1-carboxamide]
 | 0.4 µg/mL (≈ 1.06 µM) | < 200 nM | O=C(NCCc1ccccc1)n1cnc2cc(-c3ccccn3)c(Cl)cc21 [Example 7a, 6-Chloro-N-phenethyl-5-(pyridin-2-yl)-1H-benzo[d]imidazole-1-carboxamide]
 | 0.1 µg/mL (≈ 0.265 µM) | < 200 nM | O=C(NCCc1ccccc1)n1cnc2cc(Cl)c(-c3ccccn3)cc21 [Example 7b, 5-chloro-N-phenethyl-6-(pyridin-2-yl)-1H-benzo[d]imidazole-1-carboxamide]
 | 3.7 µg/mL (≈ 10.8 µM) | < 200 nM | O=C(NCCc1ccccc1)n1cnc2cc(-c3cncnc3)ccc21 [Example 8a, N-Phenethyl-5-(pyrimidin-5-yl)-1H-benzo[d]imidazole-1-carboxamide]
 | 14.5 µg/mL (≈ 42.2 µM) | < 200 nM | O=C(NCCc1ccccc1)n1cnc2ccc(-c3cncnc3)cc21 [Example 8b, N-phenethyl-6-(pyrimidin-5-yl)-1H-benzo[d]imidazole-1-carboxamide]
 | 5.4 µg/mL (≈ 15.7 µM) | < 200 nM | O=C(NCCc1ccccc1)n1cnc2cc(-c3ncccn3)ccc21 [Example 9, N-Phenethyl-5-(pyrimidin-2-yl)-1H-benzo[d]imidazole-1-carboxamide]
 | 1.2 µg/mL (≈ 3.5 µM) | < 200 nM | O=C(NCCc1ccccc1)n1cnc2cc(-c3cccnc3)ccc21 [Example 10a, N-Phenethyl-5-(pyridin-3-yl)-1H-benzo[d]imidazole-1-carboxamide]
 | 0.6 µg/mL (≈ 1.75 µM) | < 200 nM | O=C(NCCc1ccccc1)n1cnc2ccc(-c3cccnc3)cc21 [Example 10b, N-phenethyl-6-(pyridin-3-yl)-1H-benzo[d]imidazole-1-carboxamide]
 | 23.1 µg/mL (≈ 58.2 µM) | < 200 nM | CN1CCC(c2cc3c(cc2Cl)ncn3C(=O)NCCc2ccccc2)CC1 [Example 11a, 5-Chloro-6-(1-methylpiperidin-4-yl)-N-phenethyl-1H-benzo[d]imidazole-1-carboxamide]
 | 23.1 µg/mL (≈ 58.2 µM) | < 200 nM | CN1CCC(c2cc3ncn(C(=O)NCCc4ccccc4)c3cc2Cl)CC1 [Example 11b, 6-Chloro-5-(1-methylpiperidin-4-yl)-N-phenethyl-1H-benzo[d]imidazole-1-carboxamide]
 | 30.5 µg/mL (≈ 84.1 µM) | < 200 nM | CN1CCC(c2cccc3c2ncn3C(=O)NCCc2ccccc2)CC1 [Example 12, 4-(1-Methylpiperidin-4-yl)-N-phenethyl-1H-benzo[d]imidazole-1-carboxamide]
 | 2.6 µg/mL (≈ 7.46 µM) | < 200 nM | O=C(NCCc1ccccc1)n1cnc2cc(N3CCCCC3)ccc21 [Example 13a, N-Phenethyl-5-(piperidin-1-yl)-1H-benzo[d]imidazole-1-carboxamide]
 | 9.1 µg/mL (≈ 26.1 µM) | < 200 nM | O=C(NCCc1ccccc1)n1cnc2ccc(N3CCCCC3)cc21 [Example 13b, N-Phenethyl-6-(piperidin-1-yl)-1H-benzo[d]imidazole-1-carboxamide]

IC50 (acid ceramidase; pH 4.5) | solubility [1] | IC50 (acid ceramidase; [2]) | SMILES
 | 16.1 µg/mL (≈ 45.9 µM) | < 200 nM | O=C(NCCc1ccccc1)n1cnc2cc(N3CCOCC3)ccc21 [Example 14a, 5-Morpholino-N-phenethyl-1H-benzo[d]imidazole-1-carboxamide]
 | 31.2 µg/mL (≈ 89 µM) | < 200 nM | O=C(NCCc1ccccc1)n1cnc2ccc(N3CCOCC3)cc21 [Example 14b, 6-Morpholino-N-phenethyl-1H-benzo[d]imidazole-1-carboxamide]
 | 20.4 µg/mL (≈ 56.1 µM) | < 200 nM | CN1CCN(c2ccc3c(c2)ncn3C(=O)NCCc2ccccc2)CC1 [Example 15a, 5-(4-Methylpiperazin-1-yl)-N-phenethyl-1H-benzo[d]imidazole-1-carboxamide]
 | 22.9 µg/mL (≈ 63 µM) | < 200 nM | CN1CCN(c2ccc3ncn(C(=O)NCCc4ccccc4)c3c2)CC1 [Example 15b, 6-(4-Methylpiperazin-1-yl)-N-phenethyl-1H-benzo[d]imidazole-1-carboxamide]
 | 4.2 µg/mL (≈ 14.2 µM) | < 200 nM | CC(C)CNC(=O)n1cnc2cc(-c3cncnc3)ccc21 [Example 16a, N-iso-Butyl-5-(pyrimidin-5-yl)-1H-benzo[d]imidazole-1-carboxamide]
 | 18.3 µg/mL (≈ 62 µM) | < 200 nM | CC(C)CNC(=O)n1cnc2ccc(-c3cncnc3)cc21 [Example 16b, N-iso-Butyl-6-(pyrimidin-5-yl)-1H-benzo[d]imidazole-1-carboxamide]
 | 1.9 µg/mL (≈ 7.56 µM) | < 200 nM | O=C(NCc1ccccc1)n1cnc2ccccc21 [Example 17, N-Benzyl-1H-benzo[d]imidazole-1-carboxamide]
 | 2 µg/mL (≈ 7.11 µM) | < 200 nM | O=C(NCCOc1ccccc1)n1cnc2ccccc21 [Example 18, N-(2-Phenoxyethyl)-1H-benzo[d]imidazole-1-carboxamide]
 | 26.1 µg/mL (≈ 98 µM) | < 200 nM | O=C(NCCc1ccccc1)n1cnc2ncccc21 [Example 19a, N-Phenethyl-1H-imidazo[4,5-b]pyridine-1-carboxamide]
 | 24.5 µg/mL (≈ 92 µM) | < 200 nM | O=C(NCCc1ccccc1)n1cnc2cccnc21 [Example 19b, N-phenethyl-3H-imidazo[4,5-b]pyridine-3-carboxamide]
 | 5.3 µg/mL (≈ 19.9 µM) | < 200 nM | O=C(NCCc1ccccc1)n1cnc2cnccc21 [Example 20, N-Phenethyl-1H-imidazo[4,5-c]pyridine-1-carboxamide]
 | 4.3 µg/mL (≈ 16.1 µM) | < 200 nM | O=C(NCCc1ccccc1)n1cnc2ccncc21 [Example 21, N-Phenethyl-3H-imidazo[4,5-c]pyridine-3-carboxamide]
 | 12.9 µg/mL (≈ 48.4 µM) | 200 to 1000 nM | O=C(NCCc1cccnc1)n1cnc2ccccc21 [Example 22, N-(2-(Pyridin-3-yl)ethyl)-1H-benzo[d]imidazole-1-carboxamide]
 | 13.3 µg/mL (≈ 57.5 µM) | < 200 nM | CCCCCNC(=O)n1cnc2ccccc21 [Example 23, N-Pentyl-1H-benzo[d]imidazole-1-carboxamide]
 | 21.9 µg/mL (≈ 101 µM) | < 200 nM | CCCCNC(=O)n1cnc2ccccc21 [Example 24, N-Butyl-1H-benzo[d]imidazole-1-carboxamide]
 |  | 200 to 1000 nM | COCCNC(=O)n1c(OC)nc2ncccc21 [Example 95, 2-Methoxy-N-(2-methoxyethyl)-1H-imidazo[4,5-b]pyridine-1-carboxamide]
 | 27.5 µg/mL (≈ 75.6 µM) |  | CC(C)CCNC(=O)n1cnc2c(N3CCN(C)CC3)cc(Cl)cc21 [Example 112, 6-Chloro-N-iso-pentyl-4-(4-methylpiperazin-1-yl)-1H-benzo[d]imidazole-1-carboxamide]
 |  | < 200 nM | CCOc1nc2cccnc2n1C(=O)NCCC(C)C [Example 113, 2-Ethoxy-N-iso-pentyl-3H-imidazo[4,5-b]pyridine-3-carboxamide]
 |  | < 200 nM | COc1nc2ncccc2n1C(=O)NCCCOc1ccccc1 [Example 129, 2-Methoxy-N-(3-phenoxypropyl)-1H-imidazo[4,5-h]pyridine-1-carboxamide]
 | 23 µg/mL (≈ 62.1 µM) |  | Cn1c(=O)n(C(=O)NCCCCn2ccc(C(C)(C)C)n2)c2ncccc21 [Example 135b, N-(4-(3-(tert-butyl)-1H-pyrazol-1-yl)butyl)-1-methyl-2-oxo-1,2-dihydro-3H-imidazo[4,5-b]pyridine-3-carboxamide]
